Where two headings read alike, the source gives them in different places. Blank lines part the entries; values can stand above or below the molecule they belong to.
Tests used:
[1] = test system: CCNE1-amplified OVCAR3 cells; assay: Cell growth inhibition of CCNE1-amplified OVCAR3 cells (CellTiter-Glo); type: cell-based; settings: Homo sapiens, OVCAR-3, 144 h, 6 days
Outline: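 Growth read-out was CellTiter-Glo luminescence, taken after 10 min at room temperature at the end of a 6-day compound exposure at 37 °C. Compounds were diluted from DMSO stocks across various concentrations.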

[2] = test system: Phospho-Rb (Ser807/811) in OVCAR3 cells; assay: Phospho-Rb expression inhibition in OVCAR3 cells quantified by In Cell Western; type: cell-based; settings: Homo sapiens, OVCAR-3, 24 hours, read-out: OVCAR-3 pRb IC50
Outline: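 In-cell western: after 24 h compound exposure at 37° C, fixed OVCAR3 cells co-stained for pRb Ser807/811 (800 nm channel) and total Rb (680 nm channel), imaged by LI-COR Odyssey.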

CDK9-CYCLIN T1 = CDK9-CYCLIN T1 (Homo sapiens, UniProt P50750); assay: CDK protein kinase inhibition by ADP-Glo assay, CDK9-CYCLIN T1; type: biochemical; settings: for IC50: ADP-Glo, 1000 μM ATP, read-out: CDK9-CYCLINT1, IC50; for CDK2 Fold selectivity, CDK9: CDK2 versus CDK9
Chain of CDK9-CYCLIN T1 (P50750 whole entry): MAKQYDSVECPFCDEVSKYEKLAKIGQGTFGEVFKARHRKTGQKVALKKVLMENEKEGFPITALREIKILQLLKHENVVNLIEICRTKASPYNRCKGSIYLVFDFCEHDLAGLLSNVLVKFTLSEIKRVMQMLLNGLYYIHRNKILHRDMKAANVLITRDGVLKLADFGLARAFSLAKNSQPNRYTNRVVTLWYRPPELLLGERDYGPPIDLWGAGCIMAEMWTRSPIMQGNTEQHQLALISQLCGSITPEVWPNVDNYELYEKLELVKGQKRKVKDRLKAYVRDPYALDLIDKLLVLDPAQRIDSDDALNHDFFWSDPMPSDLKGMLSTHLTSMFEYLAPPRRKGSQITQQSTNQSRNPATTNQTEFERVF
Chain of CDK9-CYCLIN T1 (O60563 whole entry partner): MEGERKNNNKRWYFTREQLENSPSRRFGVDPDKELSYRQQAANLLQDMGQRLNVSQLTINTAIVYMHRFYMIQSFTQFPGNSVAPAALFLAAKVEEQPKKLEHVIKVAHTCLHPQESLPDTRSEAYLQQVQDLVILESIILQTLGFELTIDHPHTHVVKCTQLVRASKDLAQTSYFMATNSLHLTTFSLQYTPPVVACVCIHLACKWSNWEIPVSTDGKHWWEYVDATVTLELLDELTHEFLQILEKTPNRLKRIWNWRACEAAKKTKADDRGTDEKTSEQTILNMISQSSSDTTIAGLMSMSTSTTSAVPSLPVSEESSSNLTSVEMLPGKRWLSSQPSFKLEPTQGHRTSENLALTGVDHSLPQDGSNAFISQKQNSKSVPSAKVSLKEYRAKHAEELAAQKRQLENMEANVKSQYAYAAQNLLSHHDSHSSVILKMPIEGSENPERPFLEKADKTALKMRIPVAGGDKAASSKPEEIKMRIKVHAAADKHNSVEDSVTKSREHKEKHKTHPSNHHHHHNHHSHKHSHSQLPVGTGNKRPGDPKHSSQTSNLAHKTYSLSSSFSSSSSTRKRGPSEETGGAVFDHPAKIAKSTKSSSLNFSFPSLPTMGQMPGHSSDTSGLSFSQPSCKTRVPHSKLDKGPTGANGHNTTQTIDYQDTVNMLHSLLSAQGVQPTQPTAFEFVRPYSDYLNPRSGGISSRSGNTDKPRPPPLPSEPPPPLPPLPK
Outline: (§1)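 Enzyme reactions contain 1000 μM ATP and 5 mM MgCl2 in HEPES pH 7.5 with BSA, Triton X-100, DTT, orthovanadate and beta-glycerophosphate. They proceed at 22° C before ADP-Glo luminescent detection of ADP produced.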

CDK1-CYCLIN B = CDK1-CYCLIN B (Homo sapiens, UniProt P06493); assay: CDK protein kinase inhibition by ADP-Glo assay, CDK1-CYCLIN B; type: biochemical; settings: for IC50: ADP-Glo, 1000 μM ATP, read-out: CDK1-CYCLINB, IC50; for CDK2 Fold selectivity, CDK1: CDK2 versus CDK1
Chain of CDK1-CYCLIN B (P06493 whole entry): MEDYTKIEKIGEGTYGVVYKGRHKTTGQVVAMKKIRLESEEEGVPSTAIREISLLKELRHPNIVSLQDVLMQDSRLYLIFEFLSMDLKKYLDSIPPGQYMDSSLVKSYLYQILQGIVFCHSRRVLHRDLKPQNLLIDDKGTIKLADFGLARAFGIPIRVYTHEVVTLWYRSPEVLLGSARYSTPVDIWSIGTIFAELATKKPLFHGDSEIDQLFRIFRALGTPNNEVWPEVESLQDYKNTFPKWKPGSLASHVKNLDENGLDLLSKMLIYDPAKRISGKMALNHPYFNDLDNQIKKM
Chain of CDK1-CYCLIN B (P14635 whole entry partner): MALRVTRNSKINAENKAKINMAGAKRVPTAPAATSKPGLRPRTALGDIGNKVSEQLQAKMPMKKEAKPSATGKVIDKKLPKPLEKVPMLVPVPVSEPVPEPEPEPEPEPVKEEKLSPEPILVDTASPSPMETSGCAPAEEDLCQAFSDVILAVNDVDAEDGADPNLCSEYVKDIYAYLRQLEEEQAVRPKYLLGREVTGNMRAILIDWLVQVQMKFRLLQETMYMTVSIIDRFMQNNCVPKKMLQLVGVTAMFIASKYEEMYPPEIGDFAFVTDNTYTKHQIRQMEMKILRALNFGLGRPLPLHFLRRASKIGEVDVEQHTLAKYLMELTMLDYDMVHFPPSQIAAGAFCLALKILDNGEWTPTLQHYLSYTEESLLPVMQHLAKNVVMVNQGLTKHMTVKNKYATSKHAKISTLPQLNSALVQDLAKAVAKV
Outline: as §1

CDK4-CYCLIN D1 = CDK4-CYCLIN D1 (Homo sapiens, UniProt P11802); assay: CDK protein kinase inhibition by ADP-Glo assay, CDK4-CYCLIN D1; type: biochemical; settings: for IC50: ADP-Glo, 1000 μM ATP, read-out: CDK4-CYCLIND1, IC50; for CDK2 Fold selectivity, CDK4: CDK2 versus CDK4
Chain of CDK4-CYCLIN D1 (P11802 whole entry): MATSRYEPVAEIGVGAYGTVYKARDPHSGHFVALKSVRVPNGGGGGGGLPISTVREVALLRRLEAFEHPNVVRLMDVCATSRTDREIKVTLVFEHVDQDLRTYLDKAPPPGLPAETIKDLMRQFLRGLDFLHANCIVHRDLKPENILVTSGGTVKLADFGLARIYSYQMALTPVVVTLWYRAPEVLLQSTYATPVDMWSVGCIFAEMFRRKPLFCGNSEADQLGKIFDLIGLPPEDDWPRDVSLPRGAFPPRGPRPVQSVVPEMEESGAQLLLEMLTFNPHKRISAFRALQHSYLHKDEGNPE
Chain of CDK4-CYCLIN D1 (P24385 whole entry partner): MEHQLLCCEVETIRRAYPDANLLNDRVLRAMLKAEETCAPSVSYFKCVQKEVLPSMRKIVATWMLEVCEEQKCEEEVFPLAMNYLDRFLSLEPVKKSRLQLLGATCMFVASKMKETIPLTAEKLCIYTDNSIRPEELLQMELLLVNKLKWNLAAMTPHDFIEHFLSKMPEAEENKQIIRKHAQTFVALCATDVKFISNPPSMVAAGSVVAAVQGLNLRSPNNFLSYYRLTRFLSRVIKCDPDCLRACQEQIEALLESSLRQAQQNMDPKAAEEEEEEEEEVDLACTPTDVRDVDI
Outline: as §1

CCNE1-normal SKOV3 cells = assay: Cell growth inhibition of CCNE1-normal SKOV3 cells (CellTiter-Glo); type: cell-based; settings: Homo sapiens, SK-OV-3, 144 h, 6 days
Outline: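 Growth was measured by CellTiter-Glo luminescence after 6 days' compound exposure at 37 °C. Cells were plated one day before dosing at 1000 per well in medium with 10% FBS, and compounds were diluted from DMSO stocks.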

CDK6-CYCLIN D3 = CDK6-CYCLIN D3 (Homo sapiens, UniProt Q00534); assay: CDK protein kinase inhibition by ADP-Glo assay, CDK6-CYCLIN D3; type: biochemical; settings: for IC50: ADP-Glo, 1000 μM ATP, read-out: CDK6-CYCLIND3, IC50; for CDK2 Fold selectivity, CDK6: CDK2 versus CDK6
Chain of CDK6-CYCLIN D3 (Q00534 whole entry): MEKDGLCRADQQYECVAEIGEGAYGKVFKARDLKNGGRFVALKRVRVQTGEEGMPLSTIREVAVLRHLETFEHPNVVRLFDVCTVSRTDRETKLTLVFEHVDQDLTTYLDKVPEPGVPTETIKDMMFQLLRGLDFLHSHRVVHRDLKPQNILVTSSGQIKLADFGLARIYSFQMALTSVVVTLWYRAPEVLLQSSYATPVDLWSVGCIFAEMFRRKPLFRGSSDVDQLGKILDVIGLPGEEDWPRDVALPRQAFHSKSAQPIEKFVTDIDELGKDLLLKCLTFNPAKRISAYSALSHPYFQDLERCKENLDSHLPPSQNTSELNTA
Chain of CDK6-CYCLIN D3 (P30281 whole entry partner): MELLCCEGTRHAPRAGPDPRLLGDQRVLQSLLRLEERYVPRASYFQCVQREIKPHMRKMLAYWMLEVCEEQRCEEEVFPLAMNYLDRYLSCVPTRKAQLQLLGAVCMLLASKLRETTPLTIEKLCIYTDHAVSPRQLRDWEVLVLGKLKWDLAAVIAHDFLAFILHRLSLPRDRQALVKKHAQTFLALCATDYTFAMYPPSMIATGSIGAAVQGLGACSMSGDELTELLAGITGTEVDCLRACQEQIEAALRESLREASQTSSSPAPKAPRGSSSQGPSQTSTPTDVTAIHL
Outline: as §1

CDK2-CYCLIN E1 = CDK2-CYCLIN E1 (Homo sapiens, UniProt P24941); assay: CDK protein kinase inhibition by ADP-Glo assay, CDK2-CYCLIN E1; type: biochemical; settings: ADP-Glo, 1000 μM ATP, read-out: CDK2-CYCLINE, IC50
Outline: as §1

Structure (SMILES): O=C1NC23CC(CCc4cc(ccn4)Nc4cc([nH]n4)[C@H]4CC[C@H](C4)O1)(C2)C3 [compound 21]
IC50 [1]: 2 to 10 nM | IC50 [2]: 2 to 10 nM | IC50 (CDK9-CYCLIN T1; Table 9): 100 to 500 nM | IC50 (CDK1-CYCLIN B; Table 9): > 500 nM | IC50 (CDK4-CYCLIN D1; Table 9): 100 to 500 nM | IC50 (CCNE1-normal SKOV3 cells): 250 to 1250 nM | IC50 (CDK6-CYCLIN D3; Table 9): 100 to 500 nM | IC50 (CDK2-CYCLIN E1; Table 9): 10 to 50 nM

Structure (SMILES): O=C1NC23CC(CCCc4cc(ccn4)Nc4cc(n[nH]4)[C@H]4CC[C@H](C4)O1)(C2)C3 [Compound 96, (1^1S,1^3R,Z)-2^1H-11-oxa-3,9-diaza-4(4,2)-pyridina-2(3,5)-pyrazola-8(1,3)-bicyclo[1.1.1]pentana-1(1,3)-cyclopentanacycloundecaphan-10-one]
IC50 [1]: 2 to 10 nM | IC50 [2]: ≤ 2 nM | IC50 (CDK9-CYCLIN T1; Table 13): ≤ 10 nM | CDK2 Fold selectivity, CDK9 (CDK9-CYCLIN T1; Table 14): E (E, <20) | IC50 (CDK1-CYCLIN B; Table 13): ≤ 10 nM | CDK2 Fold selectivity, CDK1 (CDK1-CYCLIN B; Table 14): E (E, <20) | IC50 (CDK4-CYCLIN D1; Table 13): 50 to 100 nM | CDK2 Fold selectivity, CDK4 (CDK4-CYCLIN D1; Table 14): D (D, >20 and ≤50) | IC50 (CCNE1-normal SKOV3 cells): 50 to 250 nM | IC50 (CDK6-CYCLIN D3; Table 13): 10 to 50 nM | CDK2 Fold selectivity, CDK6 (CDK6-CYCLIN D3; Table 14): E (E, <20) | IC50 (CDK2-CYCLIN E1; Table 13): ≤ 10 nM

Structure (SMILES): C[C@H]1Oc2cc(ccn2)Nc2cc(n[nH]2)[C@H]2CC[C@H](C2)OC(=O)N[C@H]2C[C@H]1C2 [Compound 144, (1^1S,1^3R,7^1R,7^3R,6R,Z)-6-methyl-2^1H-5,10-dioxa-3,8-diaza-4(4,2)-pyridina-2(3,5)-pyrazola-1(1,3)-cyclopentana-7(1,3)-cyclobutanacyclodecaphan-9-one]
IC50 [1]: 2 to 10 nM | IC50 [2]: 2 to 10 nM | IC50 (CDK9-CYCLIN T1; Table 21): 100 to 500 nM | CDK2 Fold selectivity, CDK9 (CDK9-CYCLIN T1; Table 22): C (C, >50 and ≤100) | IC50 (CDK1-CYCLIN B; Table 21): 100 to 500 nM | CDK2 Fold selectivity, CDK1 (CDK1-CYCLIN B; Table 22): E (E, <20) | IC50 (CDK4-CYCLIN D1; Table 21): 100 to 500 nM | CDK2 Fold selectivity, CDK4 (CDK4-CYCLIN D1; Table 22): D (D, >20 and ≤50) | IC50 (CCNE1-normal SKOV3 cells): 250 to 1250 nM | IC50 (CDK6-CYCLIN D3; Table 21): 100 to 500 nM | CDK2 Fold selectivity, CDK6 (CDK6-CYCLIN D3; Table 22): D (D, >20 and ≤50) | IC50 (CDK2-CYCLIN E1; Table 21): ≤ 10 nM

Structure (SMILES): C[C@@H]1CC23CC(C2)(C3)NC(=O)O[C@@H]2CC[C@@H](C2)c2cc([nH]n2)Nc2ccnc(c2)O1 [Compound 100, (1^1S,1^3R,6R,Z)-6-methyl-2^1H-5,11-dioxa-3,9-diaza-4(4,2)-pyridina-2(3,5)-pyrazola-8(1,3)-bicyclo[1.1.1]pentana-1(1,3)-cyclopentanacycloundecaphan-10-one]
IC50 [1]: 10 to 50 nM | IC50 [2]: 2 to 10 nM | IC50 (CDK9-CYCLIN T1; Table 17): 10 to 50 nM | CDK2 Fold selectivity, CDK9 (CDK9-CYCLIN T1; Table 18): D (D, >20 and ≤50) | IC50 (CDK1-CYCLIN B; Table 17): 10 to 50 nM | CDK2 Fold selectivity, CDK1 (CDK1-CYCLIN B; Table 18): E (E, <20) | IC50 (CDK4-CYCLIN D1; Table 17): 100 to 500 nM | CDK2 Fold selectivity, CDK4 (CDK4-CYCLIN D1; Table 18): C (C, >50 and ≤100) | IC50 (CCNE1-normal SKOV3 cells): 50 to 250 nM | IC50 (CDK6-CYCLIN D3; Table 17): 100 to 500 nM | CDK2 Fold selectivity, CDK6 (CDK6-CYCLIN D3; Table 18): C (C, >50 and ≤100) | IC50 (CDK2-CYCLIN E1; Table 17): ≤ 10 nM

More lines, main results first:

IC50 [1]: 10 to 50 nM | IC50 [2]: 2 to 10 nM | IC50 (CDK9-CYCLIN T1; Table 19): 100 to 500 nM | CDK2 Fold selectivity, CDK9 (CDK9-CYCLIN T1; Table 20): D (D, >20 and ≤50) | IC50 (CDK1-CYCLIN B; Table 19): 100 to 500 nM | CDK2 Fold selectivity, CDK1 (CDK1-CYCLIN B; Table 20): E (E, <20) | IC50 (CDK4-CYCLIN D1; Table 19): 100 to 500 nM | CDK2 Fold selectivity, CDK4 (CDK4-CYCLIN D1; Table 20): E (E, <20) | IC50 (CDK6-CYCLIN D3; Table 19): 100 to 500 nM | CDK2 Fold selectivity, CDK6 (CDK6-CYCLIN D3; Table 20): D (D, >20 and ≤50) | IC50 (CDK2-CYCLIN E1; Table 19): ≤ 10 nM
Structure (SMILES): C[C@H]1CC/C=C/c2cc(ccn2)Nc2cc(n[nH]2)[C@H]2CC[C@H](C2)OC(=O)N1 [Compound 125, (1^1S,1^3R,2^4Z,5E,9S)-9-methyl-2^1H-12-oxa-3,10-diaza-4(4,2)-pyridina-2(3,5)-pyrazola-1(1,3)-cyclopentanacyclododecaphan-5-en-11-one]
IC50 (CCNE1-normal SKOV3 cells): 250 to 1250 nM

IC50 [1]: 10 to 50 nM | IC50 [2]: 2 to 10 nM | IC50 (CDK9-CYCLIN T1; Table 11): 100 to 500 nM | IC50 (CDK1-CYCLIN B; Table 11): 10 to 50 nM | IC50 (CDK4-CYCLIN D1; Table 11): 100 to 500 nM | IC50 (CDK6-CYCLIN D3; Table 11): 100 to 500 nM | IC50 (CDK2-CYCLIN E1; Table 11): ≤ 10 nM
Structure (SMILES): C[C@H]1CCCNC(=O)O[C@@H]2CC[C@@H](C2)c2cc([nH]n2)Nc2ccnc(c2)O1 [compound 12]
IC50 (CCNE1-normal SKOV3 cells): 250 to 1250 nM

IC50 [1]: 10 to 50 nM | IC50 [2]: 2 to 10 nM | IC50 (CDK9-CYCLIN T1; Table 25): 10 to 50 nM | IC50 (CDK9-CYCLIN T1; Table 31): 10 to 50 nM | CDK2 Fold selectivity, CDK9 (CDK9-CYCLIN T1; Table 26): D (D, >20 and ≤50) | CDK2 Fold selectivity, CDK9 (CDK9-CYCLIN T1; Table 32): E (E, <20) | IC50 (CDK1-CYCLIN B; Table 25): 10 to 50 nM | IC50 (CDK1-CYCLIN B; Table 31): 10 to 50 nM | CDK2 Fold selectivity, CDK1 (CDK1-CYCLIN B; Table 26): E (E, <20) | CDK2 Fold selectivity, CDK1 (CDK1-CYCLIN B; Table 32): E (E, <20) | IC50 (CDK4-CYCLIN D1; Table 25): 50 to 100 nM | IC50 (CDK4-CYCLIN D1; Table 31): 100 to 500 nM | CDK2 Fold selectivity, CDK4 (CDK4-CYCLIN D1; Table 26): C (C, >50 and ≤100) | CDK2 Fold selectivity, CDK4 (CDK4-CYCLIN D1; Table 32): D (D, >20 and ≤50) | IC50 (CDK6-CYCLIN D3; Table 25): 10 to 50 nM | IC50 (CDK6-CYCLIN D3; Table 31): 100 to 500 nM | CDK2 Fold selectivity, CDK6 (CDK6-CYCLIN D3; Table 26): D (D, >20 and ≤50) | CDK2 Fold selectivity, CDK6 (CDK6-CYCLIN D3; Table 32): D (D, >20 and ≤50) | IC50 (CDK2-CYCLIN E1; Table 25): ≤ 10 nM | IC50 (CDK2-CYCLIN E1; Table 31): ≤ 10 nM
Structure (SMILES): C[C@H]1CCCC(F)(F)c2cc(ccn2)Nc2cc(n[nH]2)[C@H]2CC[C@H](C2)OC(=O)N1 [Compound 166, (1^1S,1^3R,9S,Z)-5,5-difluoro-9-methyl-2^1H-12-oxa-3,10-diaza-4(4,2)-pyridina-2(3,5)-pyrazola-1(1,3)-cyclopentanacyclododecaphan-11-one]
IC50 (CCNE1-normal SKOV3 cells): 250 to 1250 nM

IC50 [1]: 10 to 50 nM | IC50 [2]: 2 to 10 nM | IC50 (CDK9-CYCLIN T1; Table 31): 50 to 100 nM | IC50 (CDK1-CYCLIN B; Table 31): 10 to 50 nM | IC50 (CDK4-CYCLIN D1; Table 31): 10 to 50 nM | IC50 (CDK6-CYCLIN D3; Table 31): 10 to 50 nM | IC50 (CDK2-CYCLIN E1; Table 31): 10 to 50 nM
Structure (SMILES): C[C@H]1NC(=O)O[C@@H]2CC[C@@H](C2)c2cc([nH]n2)Nc2ccnc(c2)COCC1(F)F [compound 165]
IC50 (CCNE1-normal SKOV3 cells): 50 to 250 nM

Reference: patent publication US20240317777A1, “NOVEL MACROCYCLIC AMINOPYRAZOLE COMPOUNDS AS CDK2 INHIBITORS” (Accutar Biotechnology Inc., priority 2023, published 2024)
